# Source: patent US11571423B2, “Small molecule modulators of human sting” (Curadev Pharma Limited, priority 2017, dated 2023)
# Target: hSTING(R232) (Homo sapiens, UniProt Q86WV6, H232R)
# Test: Luciferase reporter assay in HEK293T-hSTING-Luciferase cells, R232 (wild type) human STING
# Format: cell-based
# Conditions: 20 hr stimulation, read-out: R232 human activity (EC50 range)
# In short: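 After 20 hr compound stimulation of 5×10^5 cells, secreted luciferase in the supernatant was measured by luminescence; values are fold-induction over baseline and EC50. The line is a clonal HEK293T stably carrying a STING plasmid (pUNO-1) and a luciferase reporter under five tandem ISREs fused to an ISG54 promoter.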
# hSTING(R232), sequence (Q86WV6 whole entry H232R): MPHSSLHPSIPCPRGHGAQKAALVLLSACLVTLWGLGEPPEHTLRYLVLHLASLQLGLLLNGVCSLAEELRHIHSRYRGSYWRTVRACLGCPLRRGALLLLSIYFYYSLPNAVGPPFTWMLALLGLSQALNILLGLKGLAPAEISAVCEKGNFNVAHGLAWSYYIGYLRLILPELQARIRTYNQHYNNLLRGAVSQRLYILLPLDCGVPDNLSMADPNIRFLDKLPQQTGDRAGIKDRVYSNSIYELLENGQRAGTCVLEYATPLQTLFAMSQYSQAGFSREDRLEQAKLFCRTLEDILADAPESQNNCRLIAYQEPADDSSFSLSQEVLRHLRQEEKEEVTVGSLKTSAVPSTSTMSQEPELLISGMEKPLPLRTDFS
row,SMILES,EC50
1,"Cc1nc(CN2C(=O)N(C)Cc3ccc(C(=O)NCc4c(F)cc(F)cc4F)cc32)co1 [Example 36, 3-methyl-1-((2-methyloxazol-4-yl)methyl)-2-oxo-N-(2,4,6-trifluorobenzyl)-l,2,3,4-tetrahydroquinazoline-7-carboxamide]",> 10 µM
2,"CCN1Cc2ccc(C(=O)NCc3c(F)cc(F)cc3F)cc2N(Cc2cc(F)cc(F)c2)C1=O [Example 7, 1-(3,5-difluorobenzyl)-3-ethyl-2-oxo-N-(2,4,6-trifluorobenzyl)-1,2,3,4-tetrahydroquinazoline-7-carboxamide]",1 to 10 µM
3,"C[C@H]1c2ccc(C(=O)NCc3c(F)cc(F)cc3F)cc2N(Cc2c(OP(=O)(O)O)ccc(F)c2F)C(=O)N1C [Example 99, (S)-2-((3,4-dimethyl-2-oxo-7-((2,4,6-trifluorobenzyl)carbamoyl)-3,4-dihydroquinazolin-1(2H)-yl)methyl)-3,4-difluorophenyl dihydrogen phosphate]",1 to 10 µM
4,"CN1Cc2ccc(C(=O)NCc3cccc4c3OCCO4)cc2N(Cc2c(F)cccc2Cl)C1=O [Example 44, l-(2-chloro-6-fluorobenzyl)-N-((2,3-dihydrobenzo[b][1,4]dioxin-5-yl)methyl)-3-methyl-2-oxo-1,2,3,4-tetrahydroquinazoline-7-carboxamide]",> 10 µM
5,"CN1Cc2ccc(C(=O)NCc3ccc4occc4c3)cc2N(Cc2c(F)cccc2Cl)C1=O [Example 32, N-(benzofuran-5-ylmethyl)-1-(2-chloro-6-fluorobenzyl)-3-methyl-2-oxo-1,2,3,4-tetrahydroquinazoline-7-carboxamide]",1 to 10 µM
6,"Cc1ccc(-c2nc(CN3C(=O)N(C)Cc4ccc(C(=O)NCc5c(F)cc(F)cc5F)cc43)c(C)o2)cc1 [Example 40, 3-methyl-1-((5-methyl-2-(p-tolyl)oxazol-4-yl)methyl)-2-oxo-N-(2,4,6-trifluorobenzyl)-1,2,3,4-tetrahydroquinazoline-7-carboxamide]",> 10 µM

# Further lines, results first:
row,EC50,SMILES
1,> 10 µM,"CC1c2ccc(C(=O)NCc3c(F)cc(F)cc3F)cc2N(Cc2ccc(OCC(=O)O)cc2F)C(=O)N1C (stereo not drawn) [Example 228, 2-(4-((3,4-dimethyl-2-oxo-7-((2,4,6-trifluorobenzyl)carbamoyl)-3,4-dihydroquinazolin-1(2H)-yl)methyl)-3-fluorophenoxy)acetic acid]"
2,< 1 µM,"CC1c2ccc(C(=O)NCc3c(F)cc(F)cc3F)cc2N(Cc2cc(F)cc(F)c2)C(=O)N1C (stereo not drawn) [Example 156, 1-(3,5-difluorobenzyl)-3,4-dimethyl-2-oxo-N-(2,4,6-trifluorobenzyl)-1,2,3,4-tetrahydroquinazoline-7-carboxamide]"
3,< 1 µM,"CC1c2ccc(C(=O)NCc3c(F)cc(F)cc3F)cc2N(Cc2c(F)cccc2OC(F)F)C(=O)N1C (stereo not drawn) [Example 216, 1-(2-(difluoromethoxy)-6-fluorobenzyl)-3,4-dimethyl-2-oxo-N-(2,4,6-trifluorobenzyl)-1,2,3,4-tetrahydroquinazoline-7-carboxamide]"
4,> 10 µM,"C[C@H]1c2ccc(C(=O)NCc3c(F)cc(F)cc3F)cc2N(Cc2c(F)cc(OCC(=O)O)cc2F)C(=O)N1C [Example 277, (S)-2-(4-((3,4-dimethyl-2-oxo-7-((2,4,6-trifluorobenzyl)carbamoyl)-3,4-dihydroquinazolin-1(2H)-yl)methyl)-3,5-difluorophenoxy)acetic acid]"
5,1 to 10 µM,"Cc1cc(CN2C(=O)N(C)C(C)c3ccc(C(=O)NCc4c(F)cc(F)cc4F)cc32)ccn1 (stereo not drawn) [Example 207, 3,4-dimethyl-1-((2-methylpyridin-4-yl)methyl)-2-oxo-N-(2,4,6-trifluorobenzyl)-1,2,3,4-tetrahydroquinazoline-7-carboxamide]"
6,> 10 µM,"C[C@H]1c2ccc(C(=O)NCc3cc(F)cc(OCCO)c3)cc2N(Cc2c(F)cccc2Cl)C(=O)N1C [Example 266, (S)-1-(2-chloro-6-fluorobenzyl)-N-(3-fluoro-5-(2-hydroxyethoxy)benzyl)-3,4-dimethyl-2-oxo-1,2,3,4-tetrahydroquinazoline-7-carboxamide]"
